Series [1] relates to MC3T3-E1 cells. Briefly: Alkaline phosphatase (ALP) activity of osteoblasts. In kind it is cell-based. The following applies: 7 days; for activity at 5 µg/mL: Mus musculus, 168 h, compound 5 μg/ml, relative to negative control (100); for ALP activity (in words): 5 μg/ml. As for the experimental part:
After removing the medium, α-MEM supplemented with β-glycerophosphate and ascorbic acid were added thereto as a differentiation-inducing agent for osteoblasts. Each compound of Example 1 was added to the culture medium in the final concentration of 5 μg/ml. The plate containing the cells was cultured for 7 days. 100 μl of a cell lysis buffer (Sigma, Catalog number: MCL1) was added to the cells, which were then incubated at 37° C. for 30 minutes. The resulting mixture (50 μl) was reacted with p-nitrophenyl phosphate as a substrate in a 0.1N glycine-NaOH buffer (pH 9.8), at 37° C. for 30 minutes. Each amount of p-nitrophenol released from the substrate was quantified by measuring an absorbance at 405 nm using an ELISA reader (Bio-Tek instrument). […] The alkaline phosphatase activities were calculated by obtaining relative absorbance differences through comparing with a negative control (no treatment).

The subject of series [2] is MC3T3-E1 cells. Briefly: In-vitro bone nodules of osteoblasts (calcium accumulation). It counts as cell-based. The following applies: 27 days; for activity at 5 µg/mL: Mus musculus, 648 h, compound 5 μg/ml, relative to negative control (100); for Calcium accumulation in the cells (in words): 5 μg/ml. As for the experimental part: MC3T3-E1 cells (RIKEN Cell Bank, Japan) (2×10^3 cells per well) as an osteoblast cell line were placed on each well of a 24-well plate and then cultured for 24 hours. The medium was changed with α-MEM supplemented with β-glycerophosphate and ascorbic acid as a differentiation-inducing agent for osteoblasts. Each compound of Example 1 was added to the culture medium in the final concentration of 5 μg/ml. The plate containing the cells was cultured for 27 days while changing the medium every three days or every four days. […] No treatment was made to the negative control. In order to quantify the amount of calcium accumulated in the cells, the cells were washed with a biological saline, and then calcium (Ca) was extracted with a 0.5N HCl solution for 6 hours on an agitator. The extracted solution (100 μl) was reacted with a Calcium Reagent (Sigma, USA) at room temperature for 5 minutes. […] The amount of calcium accumulated in the cells was calculated by obtaining relative absorbance differences through comparing with a negative control (no treatment).

For series [3], the system named is mandiblar molars transplanted into the kidney of female mouse (C57BL/6). Briefly: Alveolar bone formation activity, compound-soaked collagen bead in mandiblar molar transplanted into mouse kidney. In kind it is in vivo. The following applies: for response vs control in vivo at 1000 µg/mL: 504 h, collagen bead dipped in 1 mg/ml solution (1-2 μg compound), molar transplanted into mouse kidney, after 3 weeks, stained area vs negative control (100%); for Alveolar bone formation activity (in words): mouse kidney transplant of molar with compound bead, 3 weeks. As for the experimental part: Each compound of Example 1 was dissolved in a sterile biological saline to obtain a solution having a concentration of 1 mg/ml. Collagen bead (diameter: 1×2 mm, Gibco) used as a bone-grafting material was dipped into each solution at 37° C. for 45 minutes. Each resulting wet bead includes about 1-2 μl of the solution, and therefore 1-2 μg of each compound. Mandiblar molars before tooth-root formation were isolated from mice. The wet bead was inserted in the center of dental pulp of each isolated mandiblar molar, using tweezers. The resulting mandiblar molars were transplanted into the kidney of female mouse (C57BL/6). After 3 weeks, the growing molar teeth were fixed with a formalin solution and then stained with a Morse's solution. The stained sites were visualized under a microscope (Olympus IX71) and then the area was measured with an imageWarp software (London, England). The effects of the compounds on alveolar bone formation were evaluated by comparing with the negative control (100%).

Series [4] can be described thus: in vitro. The following applies: mouse.
Procedure: (§1) In order to evaluate the cytotoxicities of the compounds designed in Example 1, L929 cells (RIKEN Cell Bank, Japan) (1×10^4 cells per well) were placed on each well of a 96-well plate and then cultured for 12 hours. The cells were treated with each compound in predetermined concentrations and then cultured for 48 hours. After removing the medium, a MTT (3-(4,5-dimethylthiazol-2-yl)-2,5-diphenyltetrazolium bromide) solution (100 μl per well) was added to the cells, which were then incubated for 4 hours. After removing the supernatant, each well was treated with a DMSO solution (100 μl per well) and then incubated at room temperature for 10 minutes for extraction. An absorbance at 550 nm was measured with an ELISA reader (Bio-Tek instrument). The CC50 (Cytotoxic Concentration 50%) values were determined by comparing with a negative control (no treatment).
A short description of series [5]: Cytotoxicity test (MTT). The following applies: mouse, L929 cells.
Procedure: as §1

Molecules are shown by their SMILES. In brackets after ≈: the same amount, converted by molar mass.

Take `O=C(O)c1ccc(O)cc1O` [NP22, 2,4-dihydroxybenzoic acid]: the activity at 5 µg/mL amounted to 153% in series [1] and 159% in series [2]. In addition, the response vs control in vivo at 1000 µg/mL in series [3] is 121%. The same compound came in with a CC50 at 48 h in series [4] of 150 µg/mL (≈ 973 µM).

As to `CCOC(=O)c1cc(O)ccc1O` [NP35, ethyl 2,5-dihydroxybenzoate], in series [1], the “ALP activity (in words)” value is listed as “most excellent ALP activities” and the activity at 5 µg/mL stood at 560%. Moreover, in series [2], the “Calcium accumulation in the cells (in words)” value is given as “most excellent calcium accumulation in the cells” and the activity at 5 µg/mL was 580%. Besides, in series [3], the response vs control in vivo at 1000 µg/mL stood at 450% and the “Alveolar bone formation activity (in words)” value is reported as “most excellent alveolar bone formation activities”. Moreover, the CC50 at 48 h in series [5] came to 150 µg/mL (≈ 823 µM).

Consider `O=C(O)c1cc(O)ccc1O` [NP23, 2,5-dihydroxybenzoic acid], for which the figures for the activity at 5 µg/mL in series [1] and in series [2] were 152% and 163%, respectively. The compound further showed a response vs control in vivo at 1000 µg/mL in series [3] of 119%. For the same compound, in series [5], the CC50 at 48 h is 200 µg/mL (≈ 1300 µM).

As for `CCOC(=O)c1ccc(O)c(O)c1` [NP31, ethyl 3,4-dihydroxybenzoate], the activity at 5 µg/mL in series [1] was found to be 200%; in series [2] it was 180%. In series [3], the response vs control in vivo at 1000 µg/mL came to 150%. For the same compound, the CC50 at 48 h in series [5] worked out at 100 µg/mL (≈ 549 µM).

For the compound `O=C(O)c1cccc(O)c1O` [NP21, 2,3-dihydroxybenzoic acid], the activity at 5 µg/mL in series [1] worked out at 147%; in series [2] it was 132%. The response vs control in vivo at 1000 µg/mL in series [3] was found to be 110%. This compound also registered a CC50 at 48 h in series [5] of 150 µg/mL (≈ 973 µM).

As to `O=C(O)c1cc(O)cc(O)c1` [NP32, 3,5-dihydroxybenzoic acid], the activity at 5 µg/mL in series [1] was determined as 155%; in series [2] it was 163%. Further, the response vs control in vivo at 1000 µg/mL in series [3] came out at 123%. For the same compound, the CC50 at 48 h in series [5] came out at 150 µg/mL (≈ 973 µM).

Consider `CCOC(=O)c1c(O)cccc1O` [NP36, ethyl 2,6-dihydroxybenzoate], for which the activity at 5 µg/mL in series [1] was 157%; in series [2] it was 160%. In series [3], this compound had a response vs control in vivo at 1000 µg/mL of 121%. In series [5], this compound displayed a CC50 at 48 h of 200 µg/mL (≈ 1100 µM).

As for `COC(=O)c1ccc(O)cc1O` [NP34, methyl 2,4-dihydroxybenzoate], the activity at 5 µg/mL in series [1] came out at 149%; in series [2], 158%. In series [3], this compound had a response vs control in vivo at 1000 µg/mL of 130%. This compound displayed a CC50 at 48 h in series [5] of 150 µg/mL (≈ 892 µM).

Turning to `CCOC(=O)c1cc(O)cc(O)c1` [NP37, ethyl 3,5-dihydroxybenzoate], the activity at 5 µg/mL is 153% in series [1] and 159% in series [2]. For the same compound, the response vs control in vivo at 1000 µg/mL in series [3] worked out at 122%. The same compound yielded a CC50 at 48 h in series [5] of 150 µg/mL (≈ 823 µM).

With `CCOC(=O)c1ccc(O)cc1O` [NP33, ethyl 2,4-dihydroxybenzoate], in series [1], the “ALP activity (in words)” value is “most excellent ALP activities” and the activity at 5 µg/mL amounted to 430%. Also, in series [2], the “Calcium accumulation in the cells (in words)” value is listed as “most excellent calcium accumulation in the cells” and the activity at 5 µg/mL came out at 420%. In series [3], the response vs control in vivo at 1000 µg/mL came out at 300% and the “Alveolar bone formation activity (in words)” value is “most excellent alveolar bone formation activities”. Further, the CC50 at 48 h in series [5] worked out at 100 µg/mL (≈ 549 µM).

The values above are taken from patent US8871749B2, “Bone-transplant or bone-filling composition comprising a dihydroxybenzoic acid derivative” (Cellsafe Co., Ltd., priority 2010, dated 2014).
